According to patent US11155523B2, “Biphenyl compound as CCR2/CCR5 receptor antagonist” (Medshine Discovery Inc., priority 2016, dated 2021):

What was measured:
CCR2 = biological target: T1, CCR2 (Homo sapiens, UniProt P41597); assay: CCR2 in vitro test: intracellular calcium signal detected by FLIPR; assay type: cell-based; details: HEK293 cells expressing CCR2, agonist MCP-1 at EC80, calcium signal
T1 construct: expressed in transfected cells; host or cells: HEK293, clone C7, passage P6
Procedure, shortened: (§1)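 Receptor-expressing cells loaded with Fluo-4 Direct and probenecid (2.5 mM final), then preincubated with compounds (11-point 1:3 series) before challenge at EC80 of agonist (MCP-1 for CCR2, RANTES for CCR5). FLIPR calcium max−min signal; IC50 fitted.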

CCR5 = biological target: T2, CCR5 (Homo sapiens, UniProt P51681); assay: CCR5 in vitro test: intracellular calcium signal detected by FLIPR; assay type: cell-based; details: HEK293 cells expressing CCR5, agonist RANTES at EC80, calcium signal
T2 construct: expressed in transfected cells; host or cells: HEK293, clone C13, passage P4
T2 sequence (P51681 whole entry, species assumed): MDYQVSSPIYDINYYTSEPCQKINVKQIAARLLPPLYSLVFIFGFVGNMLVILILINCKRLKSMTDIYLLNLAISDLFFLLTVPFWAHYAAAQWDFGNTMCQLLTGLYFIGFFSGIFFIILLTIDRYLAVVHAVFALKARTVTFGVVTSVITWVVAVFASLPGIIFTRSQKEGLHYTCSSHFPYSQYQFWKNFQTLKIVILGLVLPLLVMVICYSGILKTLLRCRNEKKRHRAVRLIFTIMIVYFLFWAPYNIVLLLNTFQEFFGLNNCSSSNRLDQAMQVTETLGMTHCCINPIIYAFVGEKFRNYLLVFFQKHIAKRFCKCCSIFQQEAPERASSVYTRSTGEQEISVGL
Procedure, shortened: as §1

[1] = Comparative pharmacokinetics study in cynomolgus monkeys; assay type: in vivo; details: cynomolgus monkey
Text: Experimental Example 3: Comparative Pharmacokinetics Study in Cynomolgus Monkeys
Male cynomolgus monkeys were used as the test animals in this study. The drug concentrations in plasma of the cynomolgus monkeys by intravenous or oral administration of test compound WX047 and reference compound at different time points were quantitatively determined by LC/MS/MS, which were used to evaluate the pharmacokinetic profile of the two test drugs in cynomolgus monkeys.
A clear solution of the test compound was injected into cynomolgus monkeys via t the cephalic or saphenous vein (overnight fasting, 2.5-7 kg), and the test compound was intragastrically administered to the cynomolgus monkeys (overnight fasting, 7-10 weeks old). Approximately 400 μL of blood was collected from the peripheral vein of the animals 0.0833, 0.25, 0.5, 1, 2, 4, 6, 8, 12 and 24 hours after administration, and transferred into an commercial centrifuge tube containing EDTA-K2*2H2O anticoagulation. The plasma was collected by centrifugation at 3000 g for 10 minutes at 4° C. The plasma concentration was determined by LC-MS/MS. The pharmacokinetic parameters were calculated by the non-compartment model linear logarithmic trapezoidal method using WinNonlin™ Version 6.3 (Pharsight, Mountain View, Calif.) pharmacokinetic software.

CYP2C9 = biological target: T3, CYP2C9 (Homo sapiens, UniProt P11712); assay: Inhibition of human liver microsomal CYP2C9 (diclofenac probe); assay type: in vitro ADME; details: human liver microsomes
T3 construct: from tissue; host or cells: human liver microsomes
T3 sequence (P11712 whole entry): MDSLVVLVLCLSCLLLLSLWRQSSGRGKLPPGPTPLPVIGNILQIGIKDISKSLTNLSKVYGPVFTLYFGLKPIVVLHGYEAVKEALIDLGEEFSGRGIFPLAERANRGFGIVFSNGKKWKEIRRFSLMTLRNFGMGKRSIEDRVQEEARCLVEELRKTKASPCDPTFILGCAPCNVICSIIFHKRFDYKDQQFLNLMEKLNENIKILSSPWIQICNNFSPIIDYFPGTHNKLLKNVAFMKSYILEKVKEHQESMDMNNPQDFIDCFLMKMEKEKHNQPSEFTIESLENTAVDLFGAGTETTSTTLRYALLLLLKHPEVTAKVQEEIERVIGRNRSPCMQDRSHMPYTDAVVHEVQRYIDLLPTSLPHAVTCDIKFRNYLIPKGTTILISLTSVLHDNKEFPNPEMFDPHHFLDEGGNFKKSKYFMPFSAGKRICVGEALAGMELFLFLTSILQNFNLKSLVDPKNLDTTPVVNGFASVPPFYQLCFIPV
Experimental: (§2) Experimental Example 4 Inhibition Effect on the Activity of Human Liver Microsomal Cytochrome P450 Isoezymes (CYP1A2, CYP2C9, CYP2C19, CYP2D6 and CYP3A4)
(§3) A total of 5 specific probe substrates for CYP's five isozymes, Phenacetin (CYP1A2), Diclofenac (CYP2C9), […] (S)-Mephenytoin, CYP2C19), Dextromethorphan (CYP2D6) and Midazolam (CYP3A4) were incubated with human liver microsomes and test compounds, respectively, and reduced nicotinamide adenine dinucleotide phosphate (NADPH) was added to initiate the reaction. After the reaction, the sample was processed and liquid chromatography tandem mass spectrometry (LC-MS/MS) was used to quantitatively detect the […] metabolites produced by the specific substrate, Acetaminophen and 4′-hydroxydiclofenac, 4′-hydroxymephenytoin, Dextrorphan and 1′-hydroxymidazolam, in order to calculate the corresponding half maximal inhibitory concentration (IC50).

CYP2C19 = biological target: T4, CYP2C19 (Homo sapiens, UniProt P33261); assay: Inhibition of human liver microsomal CYP2C19 ((S)-mephenytoin probe); assay type: in vitro ADME; details: human liver microsomes
T4 construct: from tissue; host or cells: human liver microsomes
T4 sequence (P33261 whole entry): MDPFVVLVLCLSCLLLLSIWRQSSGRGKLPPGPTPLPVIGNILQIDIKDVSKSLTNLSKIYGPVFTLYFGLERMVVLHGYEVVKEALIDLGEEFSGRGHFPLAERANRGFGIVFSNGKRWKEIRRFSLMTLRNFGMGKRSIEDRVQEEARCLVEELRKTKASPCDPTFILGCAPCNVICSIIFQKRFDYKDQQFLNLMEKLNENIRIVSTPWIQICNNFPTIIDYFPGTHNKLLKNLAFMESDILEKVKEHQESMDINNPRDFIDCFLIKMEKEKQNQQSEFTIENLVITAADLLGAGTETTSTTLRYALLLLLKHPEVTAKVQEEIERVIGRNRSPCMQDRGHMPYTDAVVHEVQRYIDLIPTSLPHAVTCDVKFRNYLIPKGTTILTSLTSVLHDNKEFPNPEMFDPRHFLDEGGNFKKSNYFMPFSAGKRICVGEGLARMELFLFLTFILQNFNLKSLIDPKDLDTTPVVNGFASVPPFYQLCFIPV
Experimental: as §2, §3

CYP2D6 = biological target: T5, CYP2D6 (Homo sapiens, UniProt P10635); assay: Inhibition of human liver microsomal CYP2D6 (dextromethorphan probe); assay type: in vitro ADME; details: human liver microsomes
T5 construct: from tissue; host or cells: human liver microsomes
T5 sequence (P10635 whole entry): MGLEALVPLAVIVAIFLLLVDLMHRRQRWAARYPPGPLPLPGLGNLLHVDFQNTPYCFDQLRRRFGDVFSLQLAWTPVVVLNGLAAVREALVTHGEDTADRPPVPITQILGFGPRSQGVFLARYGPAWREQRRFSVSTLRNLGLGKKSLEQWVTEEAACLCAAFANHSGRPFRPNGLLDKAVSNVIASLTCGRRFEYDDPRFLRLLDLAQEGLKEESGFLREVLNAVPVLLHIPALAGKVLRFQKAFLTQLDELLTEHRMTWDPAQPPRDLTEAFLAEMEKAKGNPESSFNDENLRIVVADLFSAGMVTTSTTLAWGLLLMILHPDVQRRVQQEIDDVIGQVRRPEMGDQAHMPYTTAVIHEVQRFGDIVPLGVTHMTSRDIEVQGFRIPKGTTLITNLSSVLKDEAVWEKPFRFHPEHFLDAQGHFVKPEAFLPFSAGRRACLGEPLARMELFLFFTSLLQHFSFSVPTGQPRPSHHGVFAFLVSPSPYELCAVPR
Experimental: as §2, §3

CYP3A4 = biological target: T6, CYP3A4 (Homo sapiens, UniProt P08684); assay: Inhibition of human liver microsomal CYP3A4 (midazolam probe); assay type: in vitro ADME; details: human liver microsomes, probe midazolam
T6 construct: from tissue; host or cells: human liver microsomes
T6 sequence (P08684 whole entry): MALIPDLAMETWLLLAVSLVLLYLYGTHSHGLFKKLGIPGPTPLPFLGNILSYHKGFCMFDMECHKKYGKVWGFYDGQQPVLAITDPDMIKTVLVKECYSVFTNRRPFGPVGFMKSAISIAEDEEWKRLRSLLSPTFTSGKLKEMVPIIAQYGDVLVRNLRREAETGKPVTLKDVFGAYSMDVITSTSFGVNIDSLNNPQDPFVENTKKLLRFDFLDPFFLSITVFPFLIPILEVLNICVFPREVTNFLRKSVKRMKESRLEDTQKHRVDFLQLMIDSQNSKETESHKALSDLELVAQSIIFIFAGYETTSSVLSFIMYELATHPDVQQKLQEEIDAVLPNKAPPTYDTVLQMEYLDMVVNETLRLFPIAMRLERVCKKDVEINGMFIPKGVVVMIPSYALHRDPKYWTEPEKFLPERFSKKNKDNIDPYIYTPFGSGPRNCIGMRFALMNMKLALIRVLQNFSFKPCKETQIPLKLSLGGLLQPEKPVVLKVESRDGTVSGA
Experimental: as §2, §3

[2] = male, plasma, intravenous injection 1 mg/kg

T1 sequence (P41597 whole entry, species assumed): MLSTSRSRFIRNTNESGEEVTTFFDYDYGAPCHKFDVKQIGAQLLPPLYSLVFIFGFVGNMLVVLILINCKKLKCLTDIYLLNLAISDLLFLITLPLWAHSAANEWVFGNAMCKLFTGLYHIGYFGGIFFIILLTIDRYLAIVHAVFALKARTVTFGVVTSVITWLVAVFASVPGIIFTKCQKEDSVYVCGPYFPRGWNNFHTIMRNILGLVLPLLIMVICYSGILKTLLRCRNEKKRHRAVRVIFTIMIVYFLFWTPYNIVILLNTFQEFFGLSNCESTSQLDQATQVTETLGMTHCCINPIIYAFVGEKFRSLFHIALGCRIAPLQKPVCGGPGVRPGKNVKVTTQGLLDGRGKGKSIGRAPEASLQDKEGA

## CCCCOCCOc1ccc(-c2ccc(OCC)c(/C=C/C(=O)Nc3ccc([S@+]([O-])Cc4c(C)ncn4CC)cc3)c2)cc1 [WX047]
CCR2
  IC50: 0.0082 µM
CCR5
  IC50: 0.0067 µM
[1]; intravenous injection 1 mg/kg
  Area Under a Curve (0-inf): 3.149 µM·h
[1]; oral 3 mg/kg
  Area Under a Curve (0-inf/0-last): 3.678 µM·h
  Peak time: 2.0 h
[1]; oral, relative to Cenicriviroc
  Oral plasma system exposure (AUC0-inf) as multiple of the reference compound: 10.8 times
[1]; relative to Cenicriviroc
  Bioavailability as multiple of the reference compound: 7.6 times
[1]; [2]
  clearance: 9.11 mL/min/kg
  half-life: 1.66 h
[1]; male, plasma, oral 3 mg/kg vs intravenous 1 mg/kg
  bioavailability: 38.9%
CYP2C9
  IC50: > 50 µM
CYP2C19
  IC50: > 50 µM
CYP2D6
  IC50: > 50 µM
CYP3A4
  IC50: > 50 µM
